For experiment [1], the target named is DNA topoisomerase II (Homo sapiens) (UniProt P11388+Q02880). Put plainly: Inhibition of human DNA topoisomerase II. Type of experiment: protein assay.
The nature of experiment [2]: 50% reduction in KB cell number after a 3-day incubation. Conditions: Homo sapiens, 72 h, read-out: ID50 (the source's name). In kind it is functional.
In experiment [3] the test system is Nucleic Acid. Description: % complex formation of cellular protein -DNA complex at a concentration of 10 uM. Type of experiment: functional. Conditions: Homo sapiens.
Experiment [4] deals with Nucleic Acid. Description: Compound was tested for the % complex formation of cellular protein -DNA complex at a concentration of 10 uM. Type of experiment: functional. Conditions: Homo sapiens.
Experiment [5] in a line: Compound was tested for the concentration to afford 50% reduction in KB cell number after a 3-day incubation. Type of experiment: functional. To be noted: Homo sapiens, 72 h, read-out: ID50 (the source's name).

Some results are limits rather than exact numbers.

`COc1cc([C@@H]2c3cc4c(cc3[C@@H](NCc3ccccc3)[C@H]3COC(=O)[C@H]23)OCO4)cc(OC)c1O`: the ID50 in experiment [1] was found to be 25000 nM. Further, the IC50 in experiment [2] came to 2200 nM. The same compound had a Complex formation in the experiment with Nucleic Acid [3] of 181%.
`COc1cc([C@@H]2c3cc4c(cc3[C@@H](NCc3ccccc3[N+](=O)[O-])[C@H]3COC(=O)[C@H]23)OCO4)cc(OC)c1O` gave an ID50 in experiment [1] of 50000 nM. For the same compound, the IC50 in experiment [2] stood at 1800 nM. The Complex formation in the experiment on Nucleic Acid [3] was determined as 144%.
As to `COc1cc([C@@H]2c3cc4c(cc3[C@@H](OCc3ccccc3)[C@H]3COC(=O)[C@H]23)OCO4)cc(OC)c1O`, the ID50 in experiment [1] is more than 100000 nM. Moreover, the IC50 in experiment [2] is 2400 nM. In addition, the Complex formation in the experiment with Nucleic Acid [3] is less than 25%.
As for `COc1cc([C@@H]2c3cc4c(cc3[C@@H](Nc3ccc(F)cc3)[C@H]3COC(=O)[C@H]23)OCO4)cc(OC)c1O`, the IC50 in experiment [2] amounted to 240 nM. In the experiment with Nucleic Acid [3], this compound showed a Complex formation of 213%.
For `COc1cc([C@@H]2c3cc4c(cc3[C@@H](NCc3ccccc3F)[C@H]3COC(=O)[C@H]23)OCO4)cc(OC)c1O`, the ID50 in experiment [1] was found to be 100000 nM. Also, in experiment [2], the IC50 came to 1900 nM. The compound further returned a Complex formation with Nucleic Acid [3] of 126%.
Turning to `COc1cc([C@@H]2c3cc4c(cc3[C@@H](NCc3ccc(F)cc3)[C@H]3COC(=O)[C@H]23)OCO4)cc(OC)c1O`, the ID50 in experiment [1] came out at 50000 nM. In addition, the IC50 in experiment [2] is more than 4000 nM. Further, the Complex formation in the experiment with Nucleic Acid [3] worked out at 169%.
For the compound `COc1cc([C@@H]2c3cc4c(cc3[C@@H](Nc3ccc(N)cc3)[C@H]3COC(=O)[C@H]23)OCO4)cc(OC)c1O`, the IC50 in experiment [2] amounted to 800 nM. The Complex formation in the experiment with Nucleic Acid [3] came out at 330%.
In experiment [1], `COc1cc([C@@H]2c3cc4c(cc3[C@@H](NCc3cccc([N+](=O)[O-])c3)[C@H]3COC(=O)[C@H]23)OCO4)cc(OC)c1O` returned an ID50 of 25000 nM. The IC50 in experiment [2] was less than 400 nM. Besides, the Complex formation in the experiment on Nucleic Acid [3] amounted to 130%.
In the case of `COc1cc([C@@H]2c3cc4c(cc3[C@@H](NCc3ccccc3N)[C@H]3COC(=O)[C@H]23)OCO4)cc(OC)c1O`, in experiment [1], the ID50 came to 25000 nM. Further, the IC50 in experiment [2] was less than 400 nM. In addition, in the experiment with Nucleic Acid [3], the Complex formation was determined as 184%.
For `COc1cc([C@@H]2c3cc4c(cc3[C@@H](OCc3ccc([N+](=O)[O-])cc3)[C@H]3COC(=O)[C@H]23)OCO4)cc(OC)c1O`, the ID50 in experiment [1] was more than 100000 nM. For the same compound, the IC50 in experiment [2] came out at 1900 nM. In the experiment with Nucleic Acid [3], this compound gave a Complex formation of less than 25%.
The like results for `COc1cc([C@@H]2c3cc4c(cc3[C@@H](NCc3ccc([N+](=O)[O-])cc3)[C@H]3COC(=O)[C@H]23)OCO4)cc(OC)c1O` were, in that order, 50000 nM, 400 nM and 216%.
Compound `COc1cc([C@@H]2c3cc4c(cc3[C@@H](Nc3ccc([N+](=O)[O-])cc3)[C@H]3COC(=O)[C@H]23)OCO4)cc(OC)c1O` gave a Complex formation in the experiment on Nucleic Acid [4] of 323%. The IC50 in experiment [5] is 490 nM.
In experiment [1], `COc1cc([C@@H]2c3cc4c(cc3[C@@H](NCc3ccc(C#N)cc3)[C@H]3COC(=O)[C@H]23)OCO4)cc(OC)c1O` came in with an ID50 of 25000 nM. Further, the IC50 in experiment [2] is less than 400 nM. Further, in the experiment on Nucleic Acid [3], the Complex formation amounted to 284%.
`COc1cc([C@@H]2c3cc4c(cc3[C@@H](O[C@@H]3O[C@@H]5CO[C@@H](C)O[C@H]5[C@H](O)[C@H]3O)[C@H]3COC(=O)[C@H]23)OCO4)cc(OC)c1O` [ETOPOSIDE] had a Complex formation with Nucleic Acid [4] of 100%. In experiment [2], the IC50 stood at 200 nM.
Regarding `COc1cc([C@@H]2c3cc4c(cc3[C@@H](NCc3ccc(C(F)(F)F)cc3)[C@H]3COC(=O)[C@H]23)OCO4)cc(OC)c1O`, in experiment [1], the ID50 was 100000 nM. For the same compound, in experiment [2], the IC50 was 2300 nM. Besides, the Complex formation with Nucleic Acid [3] was determined as 99%.
`COc1cc(CN[C@@H]2c3cc4c(cc3[C@@H](c3cc(OC)c(O)c(OC)c3)[C@H]3C(=O)OC[C@@H]32)OCO4)cc(OC)c1` came in with an ID50 in experiment [1] of 100000 nM. Besides, the IC50 in experiment [2] amounted to 1700 nM. In the experiment with Nucleic Acid [3], this compound returned a Complex formation of 144%.
In experiment [1], `COc1cc([C@@H]2c3cc4c(cc3[C@@H](NCc3cccc(N)c3)[C@H]3COC(=O)[C@H]23)OCO4)cc(OC)c1O` showed an ID50 of 25000 nM. Moreover, in experiment [2], the IC50 was less than 400 nM. The compound further had a Complex formation in the experiment on Nucleic Acid [3] of 191%.
Compound `COc1cc([C@@H]2c3cc4c(cc3[C@@H](NCc3cccc(Cl)c3)[C@H]3COC(=O)[C@H]23)OCO4)cc(OC)c1O` returned an ID50 in experiment [1] of 50000 nM. Also, the IC50 in experiment [2] came out at 1200 nM. In the experiment with Nucleic Acid [3], this compound gave a Complex formation of 159%.
On to `COc1cc([C@@H]2c3cc4c(cc3[C@@H](NCc3cccc(F)c3)[C@H]3COC(=O)[C@H]23)OCO4)cc(OC)c1O`, for which the ID50 in experiment [1] worked out at 25000 nM. Also, the IC50 in experiment [2] came out at 3000 nM. The same compound displayed a Complex formation in the experiment on Nucleic Acid [3] of 216%.
The like results for `COc1cc([C@@H]2c3cc4c(cc3[C@@H](NCc3cccc(C#N)c3)[C@H]3COC(=O)[C@H]23)OCO4)cc(OC)c1O` were, in that order, 25000 nM, less than 400 nM and 225%.
